Source: the supplement of paper PMC10307832

Tests used:
Assay in all cases: relative viability (nuclei count vs DMSO), 5 days (fraction); higher = more cells survive
201T = system: 201T
Outline: (§1)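 Nuclei were stained with Hoechst during a one-step fixation (final 0.05% Triton X-100, 1% formaldehyde, 1 ug/ml Hoechst) carried out 5 days after dosing, then counted on 4× images. The cells, lung cancer lines in 1536-well plates, had been dosed by pin tool the day after seeding with one drug alone or a fixed anchor-drug dose plus five library-drug doses (not always all listed) in √10 steps. Relative viability is the nuclei count in treated wells divided by that in vehicle wells, and each value is the median of duplicate plates.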

BEN = system: BEN
Outline: as §1

COR-L 105 = system: COR-L 105
Outline: as §1

EKVX = system: EKVX
Outline: as §1

EPLC-272H = system: EPLC-272H
Outline: as §1

H3255 = system: H3255
Outline: as §1

HCC-44 = system: HCC-44
Outline: as §1

HCC-827 = system: HCC-827
Outline: as §1

HOP-62 = system: HOP-62
Outline: as §1

LCLC-97TM1 = system: LCLC-97TM1
Outline: as §1

LOU-NH91 = system: LOU-NH91
Outline: as §1

LU99A = system: LU99A
Outline: as §1

NCI-H1395 = system: NCI-H1395
Outline: as §1

NCI-H1437 = system: NCI-H1437
Outline: as §1

NCI-H1666 = system: NCI-H1666
Outline: as §1

NCI-H1975 = system: NCI-H1975
Outline: as §1

NCI-H2085 = system: NCI-H2085
Outline: as §1

NCI-H2087 = system: NCI-H2087
Outline: as §1

NCI-H2126 = system: NCI-H2126
Outline: as §1

NCI-H2342 = system: NCI-H2342
Outline: as §1

NCI-H358 = system: NCI-H358
Outline: as §1

NCI-H647 = system: NCI-H647
Outline: as §1

PC-3 [JPC-3] = system: PC-3 [JPC-3]
Outline: as §1

SW 1573 = system: SW 1573
Outline: as §1

C[C@@H]1CN(CC(=O)Nc2ccc3c(c2)Cc2cccc(-c4cc(=O)cc(N5CCOCC5)o4)c2S3)C[C@H](C)O1 + Nc1nc2[nH]cc(CCc3ccc(C(=O)N[C@@H](CCC(=O)O)C(=O)O)cc3)c2c(=O)[nH]1 [Pemetrexed] (partner 0.2 µM)
relative viability (201T; first compound 0.04 µM): 0.329 | relative viability (201T; first compound 0.1265 µM): 0.319 | relative viability (201T; first compound 0.4 µM): 0.295 | relative viability (201T; first compound 4 µM): 0.314 | relative viability (BEN; first compound 0.04 µM): 0.633 | relative viability (BEN; first compound 0.1265 µM): 0.713 | relative viability (BEN; first compound 0.4 µM): 0.749 | relative viability (BEN; first compound 4 µM): 0.648 | relative viability (COR-L 105; first compound 0.04 µM): 1.15 | relative viability (COR-L 105; first compound 0.1265 µM): 1.07 | relative viability (COR-L 105; first compound 0.4 µM): 1.19 | relative viability (COR-L 105; first compound 4 µM): 1.14 | relative viability (EKVX; first compound 0.04 µM): 0.376 | relative viability (EKVX; first compound 0.1265 µM): 0.42 | relative viability (EKVX; first compound 0.4 µM): 0.31 | relative viability (EKVX; first compound 4 µM): 0.369 | relative viability (EPLC-272H; first compound 0.04 µM): 0.311 | relative viability (EPLC-272H; first compound 0.1265 µM): 0.371 | relative viability (EPLC-272H; first compound 0.4 µM): 0.313 | relative viability (EPLC-272H; first compound 4 µM): 0.269 | relative viability (H3255; first compound 0.04 µM): 0.539 | relative viability (H3255; first compound 0.1265 µM): 0.522 | relative viability (H3255; first compound 0.4 µM): 0.482 | relative viability (H3255; first compound 4 µM): 0.489 | relative viability (HCC-44; first compound 0.04 µM): 0.639 | relative viability (HCC-44; first compound 0.1265 µM): 0.644 | relative viability (HCC-44; first compound 0.4 µM): 0.639 | relative viability (HCC-44; first compound 4 µM): 0.63 | relative viability (HCC-827; first compound 0.04 µM): 0.253 | relative viability (HCC-827; first compound 0.1265 µM): 0.247 | relative viability (HCC-827; first compound 0.4 µM): 0.247 | relative viability (HCC-827; first compound 4 µM): 0.3 | relative viability (HOP-62; first compound 0.04 µM): 0.318 | relative viability (HOP-62; first compound 0.1265 µM): 0.33 | relative viability (HOP-62; first compound 0.4 µM): 0.317 | relative viability (HOP-62; first compound 4 µM): 0.455 | relative viability (LCLC-97TM1; first compound 0.1265 µM): 0.192 | relative viability (LCLC-97TM1; first compound 0.4 µM): 0.183 | relative viability (LCLC-97TM1; first compound 4 µM): 0.17 | relative viability (LOU-NH91; first compound 0.04 µM): 0.339 | relative viability (LOU-NH91; first compound 0.1265 µM): 0.367 | relative viability (LOU-NH91; first compound 0.4 µM): 0.36 | relative viability (LOU-NH91; first compound 4 µM): 0.329 | relative viability (LU99A; first compound 0.04 µM): 0.184 | relative viability (LU99A; first compound 0.1265 µM): 0.15 | relative viability (LU99A; first compound 0.4 µM): 0.21 | relative viability (LU99A; first compound 4 µM): 0.222 | relative viability (NCI-H1395; first compound 0.1265 µM): 0.833 | relative viability (NCI-H1395; first compound 0.4 µM): 0.749 | relative viability (NCI-H1395; first compound 4 µM): 1.08 | relative viability (NCI-H1437; first compound 0.04 µM): 0.402 | relative viability (NCI-H1437; first compound 0.1265 µM): 0.338 | relative viability (NCI-H1437; first compound 0.4 µM): 0.336 | relative viability (NCI-H1437; first compound 4 µM): 0.335 | relative viability (NCI-H1666; first compound 0.04 µM): 0.905 | relative viability (NCI-H1666; first compound 0.1265 µM): 0.837 | relative viability (NCI-H1666; first compound 0.4 µM): 0.845 | relative viability (NCI-H1666; first compound 4 µM): 0.843 | relative viability (NCI-H1975; first compound 0.04 µM): 0.268 | relative viability (NCI-H1975; first compound 0.1265 µM): 0.263 | relative viability (NCI-H1975; first compound 0.4 µM): 0.303 | relative viability (NCI-H1975; first compound 4 µM): 0.274 | relative viability (NCI-H2085; first compound 0.04 µM): 0.961 | relative viability (NCI-H2085; first compound 0.1265 µM): 0.936 | relative viability (NCI-H2085; first compound 0.4 µM): 0.935 | relative viability (NCI-H2085; first compound 4 µM): 0.759 | relative viability (NCI-H2087; first compound 0.04 µM): 0.676 | relative viability (NCI-H2087; first compound 0.1265 µM): 0.668 | relative viability (NCI-H2087; first compound 0.4 µM): 0.677 | relative viability (NCI-H2087; first compound 4 µM): 0.621 | relative viability (NCI-H2126; first compound 0.04 µM): 0.668 | relative viability (NCI-H2126; first compound 0.1265 µM): 0.657 | relative viability (NCI-H2126; first compound 0.4 µM): 0.77 | relative viability (NCI-H2126; first compound 4 µM): 0.695 | relative viability (NCI-H2342; first compound 0.04 µM): 0.745 | relative viability (NCI-H2342; first compound 0.1265 µM): 0.777 | relative viability (NCI-H2342; first compound 0.4 µM): 0.767 | relative viability (NCI-H2342; first compound 4 µM): 0.729 | relative viability (NCI-H358; first compound 0.04 µM): 0.179 | relative viability (NCI-H358; first compound 0.1265 µM): 0.154 | relative viability (NCI-H358; first compound 0.4 µM): 0.162 | relative viability (NCI-H358; first compound 4 µM): 0.157 | relative viability (NCI-H647; first compound 0.04 µM): 0.19 | relative viability (NCI-H647; first compound 0.1265 µM): 0.154 | relative viability (NCI-H647; first compound 0.4 µM): 0.102 | relative viability (NCI-H647; first compound 4 µM): 0.155 | relative viability (PC-3 [JPC-3]; first compound 0.04 µM): 1.04 | relative viability (PC-3 [JPC-3]; first compound 0.1265 µM): 1.09 | relative viability (PC-3 [JPC-3]; first compound 0.4 µM): 1.21 | relative viability (PC-3 [JPC-3]; first compound 4 µM): 0.943 | relative viability (SW 1573; first compound 0.04 µM): 0.935 | relative viability (SW 1573; first compound 0.1265 µM): 0.855 | relative viability (SW 1573; first compound 0.4 µM): 0.903 | relative viability (SW 1573; first compound 4 µM): 0.822
